Measurements published in patent publication US8853258B2, “C-linked hydroxamic acid derivatives useful as antibacterial agents” (Pfizer Inc., priority 2009, dated 2014).
In brackets after ≈: the same amount, converted by molar mass. Read-outs that look alike come from different tables or passages of the source.

Columns and labels:
[1] = system: Acinetobacter baumanii/haemolyticus: Multidrug-resistant clinical isolate (AB-3167); test: MIC determination (CLSI), AB-3167; type: cell-based; conditions: for MIC: Acinetobacter baumannii
How it was run: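 Multidrug-resistant clinical isolate AB-3167 (A. baumannii/haemolyticus) tested for minimum inhibitory concentration following CLSI dilution susceptibility standards M7-A7 and M100-S18.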

[2] = system: Klebsiella pneumoniae: Ciprofloxacin-resistant isolate, ESBL, clinical isolate (KP-3700); test: MIC determination (CLSI), KP-3700; type: cell-based
How it was run: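 Strain KP-3700, a clinical isolate producing extended-spectrum β-lactamases and resistant to ciprofloxacin, was tested. Minimum inhibitory concentrations determined via CLSI dilution methodology (M7-A7; M100-S18).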

[3] = system: Escherichia coli EC-1: VOGEL, mouse virulent; test: MIC determination (CLSI), EC-1; type: cell-based; conditions: for MIC: Escherichia coli
How it was run: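 E. coli Vogel, a mouse-virulent strain (EC-1), was tested. MICs were set by dilution susceptibility testing per CLSI standards M7-A7/M100-S18.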

[4] = molecular target: Pseudomonas aeruginosa LpxC enzyme (Pseudomonas aeruginosa (strain ATCC 15692 / DSM 22644 / CIP 104116 / JCM 14847 / LMG 12228 / 1C / PRS 101 / PAO1), UniProt P47205); test: IC50 Assay, LpxC Enzyme from P. aeruginosa (PA LpxC Enzyme IC50); type: biochemical
How it was run: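 Product formation quantified by RapidFire HTMS after a 1 h enzyme reaction quenched with 1N HCl.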

[5] = system: Pseudomonas aeruginosa UI-18: Wild-type (PA-7); test: MIC determination (CLSI), PA-7; type: cell-based; conditions: for MIC: Pseudomonas aeruginosa
How it was run: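 Wild-type P. aeruginosa UI-18 tested for minimum inhibitory concentration. Broth/agar dilution following CLSI standards (M7-A7, M100-S18).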

[6] = Table 3, read-out: PA LpxC enzyeme IC^50
[7] = Acinetobacter baumanii/haemolyticus multidrug-resistant clinical isolate AB-3167
[8] = Escherichia coli EC-1 VOGEL, mouse virulent
[9] = P. aeruginosa LpxC enzyme, read-out: PA LpxC enzyeme IC50
[10] = Pseudomonas aeruginosa UI-18 wild-type PA-7
[11] = Acinetobacter baumanii/haemolyticus AB-3167
[12] = Pseudomonas aeruginosa UI-18 (PA-7)

Cc1cccnc1COc1ccc(CCC(C)(C(=O)NO)S(C)(=O)=O)cc1 (stereo not drawn) [Example 287, N-hydroxy-2-methyl-4-{4-[(3-methylpyridin-2-yl)methoxy]phenyl}-2-(methylsulfonyl)butanamide]
MIC ([1]; Table 3, read-out: AB-3167 MIC): ≥ 64 µg/mL
KP-3700 MIC [2]: ≧64 mg/L
MIC ([3]; read-out: EC-1 MIC): ≥ 64 µg/mL
IC50 [4, 6]: 3140 pM
MIC ([5]; Table 3, read-out: PA-7 MIC): 16 µg/mL (≈ 40.8 µM)

C[C@@](CCc1ccc(-c2ccc(C#N)cc2)cc1)(C(=O)NO)S(C)(=O)=O [Example 107]
AB-3167 MIC [1, 7]: 16 µg/mL
KP-3700 MIC [2]: 1 µg/mL
EC-1 MIC [3, 8]: 0.25 µg/mL
IC50 [4, 9]: 134 pM
PA-7 MIC [5, 10]: 0.25 µg/mL

CC(CCc1ccc(OCc2nc(-c3ccccc3)no2)cc1)(C(=O)NO)S(C)(=O)=O (stereo not drawn) [Example 308, N-hydroxy-2-methyl-2-(methylsulfonyl)-4-{4-[(3-phenyl-1,2,4-oxadiazol-5-yl)methoxy]phenyl}butanamide]
MIC ([1]; Table 3, read-out: AB-3167 MIC): ≥ 64 µg/mL
KP-3700 MIC [2]: 16 µg/mL
MIC ([3]; read-out: EC-1 MIC): 4 µg/mL (≈ 8.98 µM)
IC50 [4, 6]: 2560 pM
MIC ([5]; Table 3, read-out: PA-7 MIC): 32 µg/mL (≈ 71.8 µM)

C[C@@](CCc1ccc(-c2ccc3c(c2)C(=O)NC3)cc1)(C(=O)NO)S(C)(=O)=O [Example 208]
AB-3167 MIC [1, 11]: ≧64 mg/L
KP-3700 MIC [2]: 16 µg/mL
EC-1 MIC ([3]; Escherichia coli EC-1): 4 µg/mL
IC50 [4, 9]: 374 pM
PA-7 MIC [5, 12]: 2 µg/mL

CC(=O)c1ccc(-c2ccc(CC[C@](C)(C(=O)NO)S(C)(=O)=O)cc2)cn1 [Example 190]
AB-3167 MIC [1, 7]: ≧64 mg/L
KP-3700 MIC [2]: 4 µg/mL
EC-1 MIC [3, 8]: 4 µg/mL
IC50 [4, 9]: 246 pM
PA-7 MIC [5, 10]: 2 µg/mL

CC(CCc1ccc(-c2ccc(N)nc2)c(F)c1)(C(=O)NO)S(C)(=O)=O (stereo not drawn) [Example 206]
AB-3167 MIC [1, 11]: ≧64 mg/L
KP-3700 MIC [2]: ≧64 mg/L
EC-1 MIC ([3]; Escherichia coli EC-1): ≧64 mg/L
IC50 [4, 9]: 23500 pM
PA-7 MIC [5, 12]: 16 µg/mL

CC(CCc1ccc(-c2ccc(F)cc2)c(F)c1)(C(=O)NO)S(C)(=O)=O (stereo not drawn) [Example 167]
AB-3167 MIC [1, 7]: 8 µg/mL
KP-3700 MIC [2]: 4 µg/mL
EC-1 MIC [3, 8]: 1 µg/mL
IC50 [4, 9]: 235 pM
PA-7 MIC [5, 10]: 0.5 µg/mL

CC(CCc1ccc(-c2cccc(F)c2F)cc1)(C(=O)NO)S(C)(=O)=O (stereo not drawn) [Example 62]
AB-3167 MIC [1, 7]: 16 µg/mL
KP-3700 MIC [2]: 16 µg/mL
EC-1 MIC [3, 8]: 0.5 µg/mL
IC50 [4, 9]: 185 pM
PA-7 MIC [5, 10]: 0.25 µg/mL

CC(CCc1ccc(-c2ccccc2F)cc1)(C(=O)NO)S(C)(=O)=O (stereo not drawn) [Example 50]
AB-3167 MIC [1, 7]: 16 µg/mL
KP-3700 MIC [2]: 8 µg/mL
EC-1 MIC [3, 8]: 2 µg/mL
IC50 [4, 9]: 731 pM
PA-7 MIC [5, 10]: 0.5 µg/mL

CC(C)Cc1ccc(-c2ccc(CCC(C)(C(=O)NO)S(C)(=O)=O)cc2)cc1 (stereo not drawn) [Example 63]
AB-3167 MIC [1, 7]: 8 µg/mL
KP-3700 MIC [2]: 4 µg/mL
EC-1 MIC [3, 8]: 2 µg/mL
IC50 [4, 9]: 356 pM
PA-7 MIC [5, 10]: 16 µg/mL

CC(C)CCc1noc(COc2ccc(CCC(C)(C(=O)NO)S(C)(=O)=O)cc2)n1 (stereo not drawn) [Example 272, N-hydroxy-2-methyl-4-(4-{[3-(3-methylbutyl)-1,2,4-oxadiazol-5-yl]methoxy}phenyl)-2-(methylsulfonyl)butanamide]
MIC ([1]; Table 3, read-out: AB-3167 MIC): ≥ 64 µg/mL
KP-3700 MIC [2]: ≧64 mg/L
MIC ([3]; read-out: EC-1 MIC): 32 µg/mL (≈ 72.8 µM)
IC50 [4, 6]: 1540 pM
MIC ([5]; Table 3, read-out: PA-7 MIC): ≥ 64 µg/mL

Cc1oc(-c2cccc(F)c2)nc1COc1ccc(CCC(C)(C(=O)NO)S(C)(=O)=O)cc1 (stereo not drawn) [Example 302, 4-(4-{[2-(3-fluorophenyl)-5-methyl-1,3-oxazol-4-yl]methoxy}phenyl)-N-hydroxy-2-methyl-2-(methylsulfonyl)butanamide]
MIC ([1]; Table 3, read-out: AB-3167 MIC): ≥ 64 µg/mL
KP-3700 MIC [2]: ≧64 mg/L
MIC ([3]; read-out: EC-1 MIC): 16 µg/mL (≈ 33.6 µM)
IC50 [4, 6]: 12500 pM
MIC ([5]; Table 3, read-out: PA-7 MIC): ≥ 64 µg/mL

C[C@](CCc1ccc(-c2ccc3c(c2)OCCO3)cc1)(C(=O)NO)S(C)(=O)=O [Example 175]
AB-3167 MIC [1, 7]: ≧64 mg/L
KP-3700 MIC [2]: ≧64 mg/L
EC-1 MIC [3, 8]: 32 µg/mL
IC50 [4, 9]: 14600 pM
PA-7 MIC [5, 10]: ≧64 mg/L

CC(CCc1ccc(-c2ccc(-c3cc(CO)no3)cc2)cc1)(C(=O)NO)S(C)(=O)=O (stereo not drawn) [Example 9, N-Hydroxy-4-{4′-[3-(hydroxymethyl)isoxazol-5-yl]biphenyl-4-yl}-2-methyl-2-(methylsulfonyl)butanamide]
MIC ([1]; Table 1, MIC, read-out: AB-3167 (MIC)): 32 µg/mL (≈ 72 µM)
KP-3700 MIC [2]: 4 µg/mL
MIC ([3]; read-out: EC-1: (MIC)): 0.125 µg/mL (≈ 0.281 µM)
IC50 ([4]; Table 1, read-out: PA LpxC enzyeme IC50): 320 pM
MIC ([5]; Table 1, MIC, read-out: PA-7 (MIC)): 2 µg/mL (≈ 4.5 µM)

CC(CCc1ccc(-c2ccc(N3CCOCC3)cc2)cc1)(C(=O)NO)S(C)(=O)=O (stereo not drawn) [Example 165]
AB-3167 MIC [1, 7]: ≧64 mg/L
KP-3700 MIC [2]: 8 µg/mL
EC-1 MIC [3, 8]: 0.5 µg/mL
IC50 [4, 9]: 295 pM
PA-7 MIC [5, 10]: 8 µg/mL

CC(CCc1ccc(-c2ccc(NS(C)(=O)=O)cc2)c(F)c1)(C(=O)NO)S(C)(=O)=O (stereo not drawn) [Example 209]
AB-3167 MIC [1, 11]: ≧64 mg/L
KP-3700 MIC [2]: 32 µg/mL
EC-1 MIC ([3]; Escherichia coli EC-1): 8 µg/mL
IC50 [4, 9]: 2040 pM
PA-7 MIC [5, 12]: 8 µg/mL

CN1CCN(c2ccc(-c3ccc(CCC(C)(C(=O)NO)S(C)(=O)=O)cc3)cc2)CC1 (stereo not drawn) [Example 166]
AB-3167 MIC [1, 7]: ≧64 mg/L
KP-3700 MIC [2]: 16 µg/mL
EC-1 MIC [3, 8]: 4 µg/mL
IC50 [4, 9]: 1170 pM
PA-7 MIC [5, 10]: 2 µg/mL

CC(CCc1ccc(-c2ccc(O)cc2)c(F)c1)(C(=O)NO)S(C)(=O)=O (stereo not drawn) [Example 177]
AB-3167 MIC [1, 7]: 32 µg/mL
KP-3700 MIC [2]: 8 µg/mL
EC-1 MIC [3, 8]: 1 µg/mL
IC50 [4, 9]: 306 pM
PA-7 MIC [5, 10]: 2 µg/mL

CC(CCc1ccc(C2=CCCCC2)cc1)(C(=O)NO)S(C)(=O)=O (stereo not drawn) [Example 224]
AB-3167 MIC [1, 11]: 4 µg/mL
KP-3700 MIC [2]: 16 µg/mL
EC-1 MIC ([3]; Escherichia coli EC-1): 4 µg/mL
IC50 [4, 9]: 441 pM
PA-7 MIC [5, 12]: 2 µg/mL

CCCCCc1noc(COc2ccc(CCC(C)(C(=O)NO)S(C)(=O)=O)cc2)n1 (stereo not drawn) [Example 295, N-hydroxy-2-methyl-2-(methylsulfonyl)-4-{4-[(3-pentyl-1,2,4-oxadiazol-5-yl)methoxy]phenyl}butanamide]
MIC ([1]; Table 3, read-out: AB-3167 MIC): ≥ 64 µg/mL
KP-3700 MIC [2]: ≧64 mg/L
MIC ([3]; read-out: EC-1 MIC): 32 µg/mL (≈ 72.8 µM)
IC50 [4, 6]: 12500 pM
MIC ([5]; Table 3, read-out: PA-7 MIC): ≥ 64 µg/mL

CC(CCc1ccc(OCc2ccccc2)cc1)(C(=O)NO)S(C)(=O)=O (stereo not drawn) [Example 132]
AB-3167 MIC [1, 7]: 16 µg/mL
KP-3700 MIC [2]: 16 µg/mL
EC-1 MIC [3, 8]: 2 µg/mL
IC50 [4, 9]: 386 pM
PA-7 MIC [5, 10]: 2 µg/mL

CC(CCc1ccc(C2=CCCC2)cc1)(C(=O)NO)S(C)(=O)=O (stereo not drawn) [Example 227]
AB-3167 MIC [1, 11]: ≧64 mg/L
KP-3700 MIC [2]: ≧64 mg/L
EC-1 MIC ([3]; Escherichia coli EC-1): ≧64 mg/L
IC50 [4, 9]: 11400 pM
PA-7 MIC [5, 12]: 16 µg/mL

CC(CCc1ccc(-c2ccc(C#N)c(Cl)c2)cc1)(C(=O)NO)S(C)(=O)=O (stereo not drawn) [Example 126]
AB-3167 MIC [1, 7]: 8 µg/mL
KP-3700 MIC [2]: 2 µg/mL
EC-1 MIC [3, 8]: 0.5 µg/mL
IC50 [4, 9]: 329 pM
PA-7 MIC [5, 10]: 0.5 µg/mL

Cc1nncn1-c1ccc(OCCOc2ccc(CCC(C)(C(=O)NO)S(C)(=O)=O)cc2)cc1 (stereo not drawn) [Example 290, N-hydroxy-2-methyl-2-(methylsulfonyl)-4-(4-{2-[4-(3-methyl-4H-1,2,4-triazol-4-yl)phenoxy]ethoxy}phenyl)butanamide]
MIC ([1]; Table 3, read-out: AB-3167 MIC): ≥ 64 µg/mL
KP-3700 MIC [2]: 32 µg/mL
MIC ([3]; read-out: EC-1 MIC): 8 µg/mL (≈ 16.4 µM)
IC50 [4, 6]: 3560 pM
MIC ([5]; Table 3, read-out: PA-7 MIC): ≥ 64 µg/mL
